From patent EP4467141A1, “PYRAZOLO-QUINOLINES AS SELECTIVE INHIBITORS OF GENOTOXIC STRESS-INDUCED IKK/NF- KB PATHWAYS FOR CANCER THERAPY” (Max-Delbrück-Centrum für Molekulare Medizin in der …, priority 2023, dated 2024)

Key:
Assay in all cases: Kinase panel study
Format in all cases: biochemical
Conditions in all cases: read-out: Percentage of inhibition; for inhibition at 1 µM: 1000nM; for inhibition at 10 µM: 10000nM
CSNK2A1 (CK2 alpha 1) = target: T1, CSNK2A1 (CK2 alpha 1) (Homo sapiens, UniProt P68400)
T1 construct: purchased Thermo Fisher Scientific
Outline: (§1)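 Lead compounds and derivatives were profiled by ZLyte or Adapta in vitro kinase assays. Each value reports inhibition percentage at one of two concentrations, 1 µM or 10 µM.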

MERTK (cMER) = target: T2, MERTK (cMER) (Homo sapiens, UniProt Q12866)
T2 construct: purchased Thermo Fisher Scientific
T2 sequence (Q12866 21-999): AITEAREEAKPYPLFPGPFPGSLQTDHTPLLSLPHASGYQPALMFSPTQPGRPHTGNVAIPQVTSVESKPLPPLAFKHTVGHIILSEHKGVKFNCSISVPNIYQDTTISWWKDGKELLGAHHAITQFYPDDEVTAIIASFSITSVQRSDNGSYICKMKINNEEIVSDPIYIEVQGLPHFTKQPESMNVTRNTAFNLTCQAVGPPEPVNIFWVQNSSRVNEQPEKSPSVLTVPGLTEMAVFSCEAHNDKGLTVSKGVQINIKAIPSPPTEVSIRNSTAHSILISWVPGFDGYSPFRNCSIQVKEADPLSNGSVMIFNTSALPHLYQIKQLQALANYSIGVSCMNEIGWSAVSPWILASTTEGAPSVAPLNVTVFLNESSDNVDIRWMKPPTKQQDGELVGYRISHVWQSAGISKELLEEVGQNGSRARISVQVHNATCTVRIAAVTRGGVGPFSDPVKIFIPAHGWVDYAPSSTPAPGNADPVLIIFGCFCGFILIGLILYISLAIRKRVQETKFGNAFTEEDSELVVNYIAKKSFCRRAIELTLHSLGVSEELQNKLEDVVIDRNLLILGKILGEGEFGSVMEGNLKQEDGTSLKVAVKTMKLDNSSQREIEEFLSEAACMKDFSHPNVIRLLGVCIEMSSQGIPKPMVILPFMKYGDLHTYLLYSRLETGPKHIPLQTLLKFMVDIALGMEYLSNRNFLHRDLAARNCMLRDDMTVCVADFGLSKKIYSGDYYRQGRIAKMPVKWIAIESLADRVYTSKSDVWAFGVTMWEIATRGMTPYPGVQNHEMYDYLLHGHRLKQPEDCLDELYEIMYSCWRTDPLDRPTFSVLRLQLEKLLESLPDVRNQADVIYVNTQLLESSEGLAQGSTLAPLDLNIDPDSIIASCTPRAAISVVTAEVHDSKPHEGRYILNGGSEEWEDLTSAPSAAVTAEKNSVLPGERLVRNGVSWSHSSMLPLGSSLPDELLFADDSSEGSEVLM
Outline: as §1

PRKCB2 (PKC beta II) = target: T3, PRKCB2 (PKC beta II) (Homo sapiens, UniProt P05771)
T3 construct: purchased Thermo Fisher Scientific
Outline: as §1

RPS6KB1 (p70S6K) = target: T4, RPS6KB1 (p70S6K) (Homo sapiens, UniProt P23443)
T4 construct: purchased Thermo Fisher Scientific
Outline: as §1

BRSK1 (SAD1) = target: T5, BRSK1 (SAD1) (Homo sapiens, UniProt Q8TDC3)
T5 construct: purchased Thermo Fisher Scientific
T5 sequence (Q8TDC3 1-778): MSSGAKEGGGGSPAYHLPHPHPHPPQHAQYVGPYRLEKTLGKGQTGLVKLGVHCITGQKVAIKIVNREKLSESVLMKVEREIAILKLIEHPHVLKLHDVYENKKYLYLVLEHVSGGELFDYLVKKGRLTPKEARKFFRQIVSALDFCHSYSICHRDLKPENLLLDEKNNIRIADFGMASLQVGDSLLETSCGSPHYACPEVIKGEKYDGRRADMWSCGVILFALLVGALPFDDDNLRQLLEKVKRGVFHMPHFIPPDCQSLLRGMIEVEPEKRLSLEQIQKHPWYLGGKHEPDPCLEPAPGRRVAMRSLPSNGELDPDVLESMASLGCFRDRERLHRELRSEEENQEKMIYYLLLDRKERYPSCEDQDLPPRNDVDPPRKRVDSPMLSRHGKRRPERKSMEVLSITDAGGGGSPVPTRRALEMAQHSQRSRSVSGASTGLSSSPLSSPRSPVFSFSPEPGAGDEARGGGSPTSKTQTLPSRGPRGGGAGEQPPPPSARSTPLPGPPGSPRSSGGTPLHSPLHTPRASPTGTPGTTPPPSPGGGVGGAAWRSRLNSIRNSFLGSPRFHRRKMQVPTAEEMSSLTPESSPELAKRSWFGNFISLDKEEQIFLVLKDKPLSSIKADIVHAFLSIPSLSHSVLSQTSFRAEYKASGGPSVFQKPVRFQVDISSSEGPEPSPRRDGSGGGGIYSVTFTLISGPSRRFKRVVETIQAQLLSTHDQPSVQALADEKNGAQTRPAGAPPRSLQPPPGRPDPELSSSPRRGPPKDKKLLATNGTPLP
Outline: as §1

GRK5 = target: T6, GRK5 (Homo sapiens, UniProt P34947)
T6 construct: purchased Thermo Fisher Scientific
Outline: as §1

PTK2B (FAK2) = target: T7, PTK2B (FAK2) (Homo sapiens, UniProt Q14289)
T7 construct: purchased Thermo Fisher Scientific
Outline: as §1

T7 sequence (Q14289 whole entry): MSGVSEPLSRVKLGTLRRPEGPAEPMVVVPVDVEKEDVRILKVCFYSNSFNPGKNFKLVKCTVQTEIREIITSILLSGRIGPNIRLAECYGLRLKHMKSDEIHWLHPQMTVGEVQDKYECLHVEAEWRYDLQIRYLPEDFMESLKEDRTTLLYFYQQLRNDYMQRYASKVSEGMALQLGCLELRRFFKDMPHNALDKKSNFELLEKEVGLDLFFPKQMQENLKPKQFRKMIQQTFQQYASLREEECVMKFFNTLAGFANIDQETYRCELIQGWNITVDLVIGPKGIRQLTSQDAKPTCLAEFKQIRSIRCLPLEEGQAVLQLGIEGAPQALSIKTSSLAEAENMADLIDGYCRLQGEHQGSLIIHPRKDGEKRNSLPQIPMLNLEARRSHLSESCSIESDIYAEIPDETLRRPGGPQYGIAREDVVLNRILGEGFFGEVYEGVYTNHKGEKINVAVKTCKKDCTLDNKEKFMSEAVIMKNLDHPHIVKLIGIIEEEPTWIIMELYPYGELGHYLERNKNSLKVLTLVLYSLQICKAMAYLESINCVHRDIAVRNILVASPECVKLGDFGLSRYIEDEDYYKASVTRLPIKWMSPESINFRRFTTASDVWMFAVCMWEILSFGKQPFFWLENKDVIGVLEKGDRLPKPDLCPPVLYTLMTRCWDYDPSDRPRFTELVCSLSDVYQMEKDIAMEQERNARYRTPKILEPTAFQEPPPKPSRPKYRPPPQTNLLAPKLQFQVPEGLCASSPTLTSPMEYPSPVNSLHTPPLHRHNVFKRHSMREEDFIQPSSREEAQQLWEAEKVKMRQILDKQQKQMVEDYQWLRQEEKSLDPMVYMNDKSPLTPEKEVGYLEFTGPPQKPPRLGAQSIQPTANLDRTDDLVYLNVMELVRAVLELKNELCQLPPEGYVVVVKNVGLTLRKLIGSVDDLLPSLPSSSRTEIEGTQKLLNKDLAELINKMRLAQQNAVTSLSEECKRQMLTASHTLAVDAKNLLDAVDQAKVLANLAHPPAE
T1 sequence (P68400 whole entry): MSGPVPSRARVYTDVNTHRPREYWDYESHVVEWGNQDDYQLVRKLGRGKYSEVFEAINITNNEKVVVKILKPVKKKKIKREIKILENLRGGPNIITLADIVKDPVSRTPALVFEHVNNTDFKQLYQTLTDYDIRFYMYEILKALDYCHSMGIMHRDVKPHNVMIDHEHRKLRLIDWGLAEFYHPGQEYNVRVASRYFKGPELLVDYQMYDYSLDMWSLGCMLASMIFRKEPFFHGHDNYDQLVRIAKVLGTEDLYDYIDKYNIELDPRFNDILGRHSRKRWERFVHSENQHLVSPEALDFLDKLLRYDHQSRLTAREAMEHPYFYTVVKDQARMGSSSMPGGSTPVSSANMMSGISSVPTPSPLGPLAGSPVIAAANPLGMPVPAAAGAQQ
T4 sequence (P23443 whole entry): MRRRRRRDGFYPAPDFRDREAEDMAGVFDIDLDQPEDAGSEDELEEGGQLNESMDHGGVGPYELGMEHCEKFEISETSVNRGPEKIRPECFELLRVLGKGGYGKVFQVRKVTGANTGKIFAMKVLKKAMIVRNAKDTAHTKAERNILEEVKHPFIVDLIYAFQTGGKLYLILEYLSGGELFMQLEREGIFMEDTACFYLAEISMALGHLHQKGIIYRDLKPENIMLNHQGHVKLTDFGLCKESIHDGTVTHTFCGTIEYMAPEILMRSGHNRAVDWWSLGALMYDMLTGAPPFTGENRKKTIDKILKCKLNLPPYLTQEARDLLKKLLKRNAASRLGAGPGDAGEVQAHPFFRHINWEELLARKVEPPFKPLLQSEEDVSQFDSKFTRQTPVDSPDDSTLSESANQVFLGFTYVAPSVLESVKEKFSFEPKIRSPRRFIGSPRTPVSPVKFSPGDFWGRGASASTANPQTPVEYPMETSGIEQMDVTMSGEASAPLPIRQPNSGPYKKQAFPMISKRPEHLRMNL
T3 sequence (P05771 1-673 isoform P05771-2): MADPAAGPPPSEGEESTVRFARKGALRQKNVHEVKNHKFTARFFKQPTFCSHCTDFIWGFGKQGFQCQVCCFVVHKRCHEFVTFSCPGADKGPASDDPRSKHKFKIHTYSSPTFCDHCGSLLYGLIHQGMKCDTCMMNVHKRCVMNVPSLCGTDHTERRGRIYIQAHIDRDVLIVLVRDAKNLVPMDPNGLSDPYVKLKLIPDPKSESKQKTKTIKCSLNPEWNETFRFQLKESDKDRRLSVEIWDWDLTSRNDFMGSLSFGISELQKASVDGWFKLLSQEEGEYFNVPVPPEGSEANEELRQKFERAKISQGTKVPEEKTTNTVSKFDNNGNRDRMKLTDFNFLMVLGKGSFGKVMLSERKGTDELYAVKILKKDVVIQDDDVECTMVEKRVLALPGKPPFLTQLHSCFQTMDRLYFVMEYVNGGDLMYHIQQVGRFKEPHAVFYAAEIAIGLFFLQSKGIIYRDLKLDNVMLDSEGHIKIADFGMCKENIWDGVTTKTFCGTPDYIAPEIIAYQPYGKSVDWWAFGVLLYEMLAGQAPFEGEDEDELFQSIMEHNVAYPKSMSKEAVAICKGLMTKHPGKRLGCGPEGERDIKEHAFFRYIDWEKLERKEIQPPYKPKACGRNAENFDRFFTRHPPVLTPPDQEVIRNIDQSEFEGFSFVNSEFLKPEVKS
T6 sequence (P34947 whole entry): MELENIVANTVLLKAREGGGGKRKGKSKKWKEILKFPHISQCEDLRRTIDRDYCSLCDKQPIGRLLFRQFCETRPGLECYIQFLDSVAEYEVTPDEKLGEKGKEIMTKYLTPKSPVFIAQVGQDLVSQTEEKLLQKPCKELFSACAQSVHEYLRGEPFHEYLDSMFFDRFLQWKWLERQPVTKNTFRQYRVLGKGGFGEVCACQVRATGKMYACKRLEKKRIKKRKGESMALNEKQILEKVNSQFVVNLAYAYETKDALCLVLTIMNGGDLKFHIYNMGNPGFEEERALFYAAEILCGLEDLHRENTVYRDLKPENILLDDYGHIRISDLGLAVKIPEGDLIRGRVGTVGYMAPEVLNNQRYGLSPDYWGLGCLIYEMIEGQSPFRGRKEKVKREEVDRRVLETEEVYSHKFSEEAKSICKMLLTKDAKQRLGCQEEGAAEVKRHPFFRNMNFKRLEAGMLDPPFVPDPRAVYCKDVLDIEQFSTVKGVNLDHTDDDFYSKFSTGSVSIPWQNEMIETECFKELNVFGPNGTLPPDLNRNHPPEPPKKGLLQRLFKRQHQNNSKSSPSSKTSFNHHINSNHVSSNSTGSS

SMILES | inhibition at 1 µM (CSNK2A1 (CK2 alpha 1)) [%] | inhibition at 10 µM (CSNK2A1 (CK2 alpha 1)) [%] | inhibition at 1 µM (MERTK (cMER)) [%] | inhibition at 10 µM (MERTK (cMER)) [%] | inhibition at 1 µM (PRKCB2 (PKC beta II)) [%] | inhibition at 10 µM (PRKCB2 (PKC beta II)) [%] | inhibition at 1 µM (RPS6KB1 (p70S6K)) [%] | inhibition at 10 µM (RPS6KB1 (p70S6K)) [%] | inhibition at 1 µM (BRSK1 (SAD1)) [%] | inhibition at 10 µM (BRSK1 (SAD1)) [%] | inhibition at 1 µM (GRK5) [%] | inhibition at 10 µM (GRK5) [%] | inhibition at 1 µM (PTK2B (FAK2)) [%] | inhibition at 10 µM (PTK2B (FAK2)) [%]
COc1ccc2c(c1OC)c(=O)n1c3ccc(O)cc3c3ccnc2c31 [MW01, 5-Hydroxy-10,11-dimethoxy-9H-benzo[c]indolo[3,2,1-ij][1,5]naphthyridin-9-one] | 9 | 18 | 54 | 86 | 11 | 14 | 19 | 15 | 0 | 6 | -3 | 0 | 2 | 9
COc1ccc2cc3c(N)nn(C(=O)c4cccc(N(C)C)c4)c3nc2c1 [MW05, (3-Amino-7-methoxypyrazolo[3,4-b]quinolin-1-yl)-[3-(dimethylamino)phenyl]methanone] | 9 | 5 | 4 | 11 | 9 | -5 | 12 | 7 | -1 | -6 | -2 | 0 | -2 | -7
